Results from patent US10328075B2, “Method of treatment and compounds for use therein” (Baker Heart and Diabetes Institute, priority 2015, dated 2019).
Where two headings read alike, the source gives them in different places.

Target: T1, hFPR2 (Homo sapiens, UniProt P25090)
T1 construct: expressed in transfected cells
T1 sequence (P25090 1-351): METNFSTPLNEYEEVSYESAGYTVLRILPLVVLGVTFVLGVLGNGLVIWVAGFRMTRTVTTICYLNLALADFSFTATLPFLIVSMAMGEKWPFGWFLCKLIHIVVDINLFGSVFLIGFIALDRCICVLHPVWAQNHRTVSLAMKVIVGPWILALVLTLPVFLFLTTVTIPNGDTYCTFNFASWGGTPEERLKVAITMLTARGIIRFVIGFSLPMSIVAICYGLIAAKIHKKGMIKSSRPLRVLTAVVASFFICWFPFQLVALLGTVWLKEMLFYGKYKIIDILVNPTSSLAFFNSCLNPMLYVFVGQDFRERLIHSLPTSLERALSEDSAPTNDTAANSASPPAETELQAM
Assay: Akt (Thr308) phosphorylation in hFPR2-FlpIn-CHO cells
Assay type: cell-based
Details: for ΔLog(τ/KA), Akt 1/2/3 (Thr308) phosphorylation, hFPR2-Flpln-CHO: normalized transduction coefficient, reference agonist Cmpd43; for Log(τ/KA), Akt 1/2/3 (Thr308) phosphorylation, hFPR2-Flpln-CHO: transduction coefficient
Source text: cDNDA construct and generation of stable cell lines: cDNA in pcDNA3.1^+ encoding the human formyl peptide receptors (FPR) subtypes, hFPR1, hFPR2 and hFPR3 was obtained from Invitrogen. The sequences for 3 hFPR receptors were amplified by PCR and cloned into the Gateway entry vector, pDONR202™, using the BP clonase enzyme mix, according to the manufactures' instructions (Invitrogen Inc, Carlsbad, Calif., USA). All hFPR receptors constructs in pDONR201™ were subsequently transfected into the pEF5/FRT/V5/dest vector using the LR clonase enzyme mix (Invitrogen). Receptor constructs (pEF5/FRT/V5/dest) were used to transfect FIp-In CHO cells as described previously (Valant C et al., PNAS, 2014). Cells were selected using 500 μg/mL hydromycin to generate cell lines stably expressing each receptor construct. Cells were maintained and cultured in high glucose DMEM supplemented with 10% FBS, 16 mM HEPES and 500 μg/mL hydromycin at 37° C. under a humidified atmosphere containing 5% CO2.
In the various assays described below, cells were plated into 96-well transparent cell culture plates at 4×10^4 cells per well, cultured overnight in serum-free media at 37° C. in 5% CO2.
Measurement of Akt1/2/3 phosphorylation and Akt 1: The same lysate was used for measurement of Akt1/2/3 phosphorylation (Ser473) and Akt1 (Thr308). Cells were lysed in SureFire lysis buffer and transferred to 384-well opaque proxiplates. Under low-light conditions, a 1:10:40 (v:v:v) dilution of AlphaScreen acceptor beads:Surefire activation buffer:Surefire reaction buffer was prepared and the plate was incubated in the dark at RT for 2 h. Then, a 1:20 (v:v) dilution of AlphaScreen donor beads/dilution was prepared and incubated in the dark at RT for another 2 h, before the fluorescence signal was measured by used of a Fusion-α plate reader (PerkinElmer Life and Analytical Sciences) with standard AlphaScreen settings. Receptor mediated phosphorylation of Akt1/2/3 (Ser473) and Akt1 (Thr308) were determined using the AlphaScreen™ […] SureFire™ kit, as per as per manufacturer's instructions. Data were normalized to the maximal response elicited by 10% (v:v) FBS at the same time point.
Data analysis: All data were analysed using GraphPad Prism 6.0 (GraphPad Software, San Deigo, Calif., USA). Where appropriate, concentration-response curves were fitted to derive the maximal agonist effect (Emax), and the ligand potency estimate (pEC50), where Emax is the maximal possible response of the system (not the agonist), basal is the basal level of response in the absence of agonist, and pEC50 is the negative logarithm of the agonist concentration that gives a response halfway between Emax and basal.
In the present study, FIp-IN CHO cells and Gateway plasmid were obtained from Invitrogen Inc (Carlsbad, Calif., USA). The sequences for all 3 known human FPRs (hFPR1, hFPR2 and hFPR3) were amplified by PCR and cloned into the Gateway entry vector, pDONR202TM, using the BP clonase enzyme mix, according to the manufacturers' instructions. The hFPR pDONR201TM constructs were subsequently transfected into the pEF5/FRT/V5/dest vector using the LR clonase enzyme mix (Invitrogen). Receptor constructs (pEF5/FRT/V5/dest) were used to transfect FIp-IN CHO cells, as described previously (Valant et al. 2014). Cells were selected using 500 μg/mL hydromycin to generate cell lines stably expressing each human receptor construct. Cells were maintained and cultured in high glucose Dulbecco's modified eagle medium (DMEM) supplemented with 10% fetal bovine serum (FBS, from JRH Biosciences, Lenexa, Kans., USA) and 500 μg/mL hydromycin B (Invitrogen Inc) at 37° C. under a humidified atmosphere containing 5% CO2. Cell were plated into 96-well transparent cell culture plates at 4×10^4 cells per well, cultured overnight in serum-free media at 37° C. in 5% CO2.

[1] = Table 3, percentage of Akt1/2/3 phosphorylation elicited by 10% FBS, read-out: Emax (%), Akt 1 (Thr308) phosphorylation, hFPR2-Flpln-CHO
[2] = Table 8, percent of response elicited by 10% FBS, read-out: Emax, Akt 1/2/3 (Thr308) phosphorylation, hFPR2-Flpln-CHO

SMILES: CC(C)C1C(NC(=O)Nc2ccc(Cl)cc2)C(=O)N(c2ccccc2)N1C (stereo not shown) [BIDI-002]
- Emax [1]: 27 ± 2%
- EC50 (Table 3, read-out: pEC50, Akt 1 (Thr308) phosphorylation, hFPR2-Flpln-CHO (converted)): 0.138 µM
- ΔLog(τ/KA), Akt 1/2/3 (Thr308) phosphorylation, hFPR2-Flpln-CHO (Table 8): 0.0
- Emax [2]: 27 ± 2%
- EC50 (Table 8, read-out: pEC50, Akt 1/2/3 (Thr308) phosphorylation, hFPR2-Flpln-CHO (converted)): 0.126 µM
- Log(τ/KA), Akt 1/2/3 (Thr308) phosphorylation, hFPR2-Flpln-CHO (Table 8): 7.0 ± 0.2

SMILES: CSCC[C@H](NC=O)C(=O)N[C@@H](CC(C)C)C(=O)N[C@@H](Cc1ccccc1)C(=O)O [fMLP, N-formyl-Met-Leu-Phe]
- Emax [1]: 7 ± 2%
- ΔLog(τ/KA), Akt 1/2/3 (Thr308) phosphorylation, hFPR2-Flpln-CHO (Table 8): −2.1 ± 0.3
- Emax [2]: 21 ± 2%
- Log(τ/KA), Akt 1/2/3 (Thr308) phosphorylation, hFPR2-Flpln-CHO (Table 8): 4.8 ± 0.1
